Test results published in PMC7327080, “A novel 4-aminoquinazoline derivative, DHW-208, suppresses the growth of human breast cancer cells by targeting the PI3K/AKT/mTOR pathway” (Cell Death & Disease, 2020).

Target: mTOR (Homo sapiens, UniProt P42345)
Test: in vitro mTOR kinase activity assay (inhibition curve, Fig. 5e)
Format: biochemical

SMILES: COc1ncc(-c2ccc3ncnc(Nc4cnn(CCO)c4)c3c2)cc1NS(=O)(=O)c1ccc(F)cc1F [DHW-208, 2,4-difluoro-N-(5-(4-((1-(2-hydroxyethyl)-1H-pyrazol-4-yl)amino)quinazolin-6-yl)-2-methoxypyridin-3-yl)benzenesulfonamide]
- IC50: 3 nM
